How the values were obtained:
H1618 and DMS79 cells = experiment: IFN response activity assay: pre-treatment, SVV-GFP challenge, flow cytometry; settings: then SVV-GFP 16 h, both cell lines; for GFP+ cells compared to untreated cells: 4 μM HDAC inhibitor pre-treatment 24 h
parental H446 cells = experiment: SVV-Cy5 binding experiment, flow cytometry; set-up: species or system human; settings: SVV-Cy5 30 min at 37° C.
Method: (§1) SVV was incubated with the amine-reactive Cy5 dye (GE Healthcare) in sodium carbonate buffer (pH 9.3) for 1 h at room temperature (RT). Excess dye was removed by filtration through gel filtration columns (GE Healthcare) in HEPES buffer. Virus aliquots were stored at −80° C. parental, ANTXR1 KO, and TEX2 KO H446 cells were incubated with SVV-Cy5 for 30 min at 37° C. in OptiMEM. The non-permissive SCLC cell line, DMS114, was used as a negative control. […] All compensation and gating were performed with FlowJo analysis software (TreeStar) as described below.

ANTXR1 KO H446 cells = experiment: SVV-Cy5 binding experiment, flow cytometry; set-up: species or system human; settings: SVV-Cy5 30 min at 37° C.
Method: as §1

DMS114 cells = experiment: SVV-Cy5 binding experiment, flow cytometry; set-up: species or system human; settings: SVV-Cy5 30 min at 37° C.; non-permissive negative control line
Method: as §1

TEX2 KO H446 cells = experiment: SVV-Cy5 binding experiment, flow cytometry; set-up: species or system human; settings: SVV-Cy5 30 min at 37° C.
Method: as §1

SVV = experiment: Co-immunoprecipitation of SVV with Fc chimera proteins, Western blot; settings: Fc protein on Protein G Dynabeads, SVV 2.0×10^10 vp, 2 h at 4° C.
SVV-GFP = experiment: Blocking experiment: SVV-GFP pre-incubated with Fc protein, then added to parental H446 cells; settings: 5 μg/mL Fc protein with SVV-GFP (MOI=5) on ice 1 h, then parental H446 cells overnight
[1] = target: T1, Seneca Valley Virus (SVV) (Seneca Valley Virus, UniProt Q155Z9 674-937; Q155Z9 151-434; Q155Z9 435-673; Q155Z9 80-150); experiment: co-immunoprecipitation on Protein G Dynabeads, Western blot with SVV rabbit antisera
T1 construct: domain: VP1;domain: VP2;domain: VP3;domain: VP4; also called SVV-001; WT SVV
T1 sequence 1: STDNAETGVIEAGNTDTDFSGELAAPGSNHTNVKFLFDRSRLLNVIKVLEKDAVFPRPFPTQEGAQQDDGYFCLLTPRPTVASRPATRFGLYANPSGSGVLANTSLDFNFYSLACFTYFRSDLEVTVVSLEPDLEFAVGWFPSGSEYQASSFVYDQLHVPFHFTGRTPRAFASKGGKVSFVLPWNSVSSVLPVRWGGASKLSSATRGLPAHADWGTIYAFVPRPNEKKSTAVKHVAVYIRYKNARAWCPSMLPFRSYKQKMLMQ
T1 sequence 2: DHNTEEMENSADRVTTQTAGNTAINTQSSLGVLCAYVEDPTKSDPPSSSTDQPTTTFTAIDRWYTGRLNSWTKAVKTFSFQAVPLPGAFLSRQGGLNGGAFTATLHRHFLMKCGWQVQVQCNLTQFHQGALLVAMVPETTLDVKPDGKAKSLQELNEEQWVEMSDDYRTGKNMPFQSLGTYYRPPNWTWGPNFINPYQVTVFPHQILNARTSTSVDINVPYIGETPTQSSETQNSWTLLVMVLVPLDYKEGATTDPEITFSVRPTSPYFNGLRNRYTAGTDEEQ
T1 sequence 3: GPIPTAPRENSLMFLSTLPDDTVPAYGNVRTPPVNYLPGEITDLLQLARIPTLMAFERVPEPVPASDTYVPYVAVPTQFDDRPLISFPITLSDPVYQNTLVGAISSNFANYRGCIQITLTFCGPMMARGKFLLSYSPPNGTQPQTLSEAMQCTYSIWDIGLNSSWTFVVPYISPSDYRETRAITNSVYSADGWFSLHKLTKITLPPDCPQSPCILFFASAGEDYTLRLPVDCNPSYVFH
T1 sequence 4: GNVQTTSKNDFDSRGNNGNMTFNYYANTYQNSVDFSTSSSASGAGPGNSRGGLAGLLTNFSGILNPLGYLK

Molecule: Nc1ccccc1NC(=O)c1ccc(CNC(=O)OCc2cccnc2)cc1 [MS-275]
- GFP+ cells compared to untreated cells (H1618 and DMS79 cells): significant increase

Molecule: O=C(CCCCCCC(=O)Nc1ccccc1)NO [SAHA, Vorinostat]
- GFP+ cells compared to untreated cells (H1618 and DMS79 cells): significant increase

Molecule: IFNα
- SVV permissive, or GFP+ cells (H1618 and DMS79 cells; 25 Units/mL IFN pre-treatment 24 h): decrease

Molecule: SVV-Cy5: WT SVV labeled with the fluorophore Cy5
- mean fluorescence (MF) (parental H446 cells): 2,373
- mean fluorescence (MF) (ANTXR1 KO H446 cells): 358
- mean fluorescence (MF) (DMS114 cells): 425
- mean fluorescence (MF) (TEX2 KO H446 cells): 2,233

B1: ANTXR1-Fc (protein)
chain: EDGGPACYGGFDLYFILDKSGSVLHHWNEIYYFVEQLAHKFISPQLRMSFIVFSTRGTTLMKLTEDREQIRQGLEELQKVLPGGDTYMHEGFERASEQIYYENRQGYRTASVIIALTDGELHEDLFFYSEREANRSRDLGAIVYCVGVKDFNETQLARIADSKDHVFPVNDGFQALQGIIHSILKKSCIEILAAEPSTICAGESFQVVVRGNGFRHARNVDRVLCSFKINDSVTLNEKPFSVEDTYLLCPAPILKEVGMKAALQVSMNDGLSFISSSVIITTTHCSDGS
modifications: left off: a dimerising Fc or GST
- SVV viral protein bands co-immunoprecipitated (direct interaction with SVV) (SVV): viral protein bands were observed
- GFP+ cells (SVV-GFP infection) by fluorescence microscopy (SVV-GFP): no detectable GFP+ cells

B2: ANTXR2-Fc chimera (Fc fusion)
chain: QEQPSCRRAFDLYFVLDKSGSVANNWIEIYNFVQQLAERFVSPEMRLSFIVFSSQATIILPLTGDRGKISKGLEDLKRVSPVGETYIHEGLKLANEQIQKAGGLKTSSIIIALTDGKLDGLVPSYAEKEAKISRSLGASVYCVGVLDFEQAQLERIADSKEQVFPVKGGFQALKGIINSILAQSCTEILELQPSSVCVGEEFQIVLSGRGFMLGSRNGSVLCTYTVNETYTTSVKPVSVQLNSMLCPAPILNKAGETLDVSVSFNGGKSVISGSLIVTATECSNG
notes: Bought reagent; also called ANTXR2-Fc chimeric protein; ANTXR2-Fc protein; not shown: Fc part of the chimera; the control isotype is an IgG1 Fc
- binding result [1]: no binding

B3: ANTXR2-Fc (protein)
chain: B2 chain
modifications: left off: a dimerising Fc or GST
- SVV viral protein bands co-immunoprecipitated (direct interaction with SVV) (SVV): absence of an interaction
- GFP+ cells (SVV-GFP infection) by fluorescence microscopy (SVV-GFP): high levels of GFP+ cells

Source: patent US12472218B2, “Seneca valley virus (SVV) cellular receptor targeted oncotherapy” (Memorial Sloan-Kettering Cancer Center, priority 2015, dated 2025)
